Laboratory results published in patent publication US11384055B2 (BIOMARIN PHARMACEUTICAL INC., priority 2017, dated 2022).
Where two headings read alike, the source gives them in different places.

Molecular target: T1, Human GO (Homo sapiens, UniProt Q9UJM8)
T1 construct: purchased Novus Biologicals NBP1-72412
T1 sequence (Q9UJM8 1-370): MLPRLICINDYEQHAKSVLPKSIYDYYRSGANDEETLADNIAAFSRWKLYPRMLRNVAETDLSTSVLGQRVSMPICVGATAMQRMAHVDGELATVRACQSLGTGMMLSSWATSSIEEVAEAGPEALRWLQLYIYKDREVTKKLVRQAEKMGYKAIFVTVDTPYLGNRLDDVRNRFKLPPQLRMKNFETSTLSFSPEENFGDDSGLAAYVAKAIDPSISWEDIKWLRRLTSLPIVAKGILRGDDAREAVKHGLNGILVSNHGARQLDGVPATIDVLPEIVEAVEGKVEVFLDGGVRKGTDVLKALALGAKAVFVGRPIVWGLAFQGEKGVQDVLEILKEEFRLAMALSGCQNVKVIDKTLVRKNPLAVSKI
Assay: GO enzymatic assay (coupled fluorescence/HRP assay, glycolate substrate)
Format: biochemical
Procedure, shortened: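 Coupled HRP/fluorescence read-out of glycolate oxidation by human GO in 50 mM potassium phosphate buffer (pH 7). Inhibitors added across a concentration range.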

[1] = Table 1, read-out: Range (range of IC50 values calculated from the enzymatic assays)
[2] = Table 2, read-out: Range (range of IC50 values calculated from the enzymatic assays)

CC(C)N1CCc2ccc(-c3nn[nH]c3C(=O)O)cc2C1 [Compound 144, 4-(2-isopropyl-1,2,3,4-tetrahydroisoquinolin-7-yl)-1H-1,2,3-triazole-5-carboxylic acid 2,2,2-trifluoroacetate]
IC50 [1]: > 10 µM

O=C(O)c1[nH]nnc1-c1ccc(OC(F)(F)F)cn1 [Compound 145, 4-(5-(trifluoromethoxy)pyridin-2-yl)-1H-1,2,3-triazole-5-carboxylic acid 2,2,2-trifluoroacetate]
IC50 [1]: 1 to 10 µM

O=C(O)c1[nH]nnc1C(=O)N1CCC(c2ccc(Cl)cc2)C1 (centres unmarked) [Compound 146, 4-(3-(4-chlorophenyl)pyrrolidine-1-carbonyl)-1H-1,2,3-triazole-5-carboxylic acid]
IC50 [1]: 1 to 10 µM

O=C(O)c1[nH]nnc1C(=O)N1Cc2ccc(Cl)cc2C1 [Compound 147, 4-(5-chloroisoindoline-2-carbonyl)-1H-1,2,3-triazole-5-carboxylic acid]
IC50 [1]: 1 to 10 µM

O=C(O)c1[nH]nnc1C(=O)N1CCc2cc(Cl)ccc21 [Compound 148, 4-(5-chloroindoline-1-carbonyl)-1H-1,2,3-triazole-5-carboxylic acid]
IC50 [1]: < 0.1 µM

O=C(O)c1[nH]nnc1C(=O)N1CCC(c2ccc(Cl)cc2Cl)C1 (centres unmarked) [Compound 149, 4-(3-(2,4-dichlorophenyl)pyrrolidine-1-carbonyl)-1H-1,2,3-triazole-5-carboxylic acid]
IC50 [1]: 1 to 10 µM

O=C(O)c1[nH]nnc1C(=O)N1CCC(c2ccc(Cl)c(Cl)c2)C1 (centres unmarked) [Compound 150, 4-(3-(3,4-dichlorophenyl)pyrrolidine-1-carbonyl)-1H-1,2,3-triazole-5-carboxylic acid]
IC50 [1]: 1 to 10 µM

O=C(O)c1[nH]nnc1SCc1ccc(Cl)c2ccccc12 [Compound 152, 4-(((4-chloronaphthalen-1-yl)methyl)thio)-1H-1,2,3-triazole-5-carboxylic acid 2,2,2-trifluoroacetate]
IC50 [1]: < 0.1 µM

O=C(O)c1[nH]nnc1Nc1cc(Cl)cc(Cl)c1 [Compound 153, 4-((3,5-dichlorophenyl)amino)-1H-1,2,3-triazole-5-carboxylic acid]
IC50 [1]: 0.1 to 1 µM

O=C(O)c1[nH]nnc1Nc1cc(Cl)ccc1Cl [Compound 154, 4-((2,5-dichlorophenyl)amino)-1H-1,2,3-triazole-5-carboxylic acid 2,2,2-trifluoroacetate]
IC50 [1]: 1 to 10 µM

O=C(O)c1[nH]nnc1Nc1ccc(-c2ccc(OC(F)(F)F)c(Cl)c2)cc1 [Compound 155, 4-((3′-chloro-4′-(trifluoromethoxy)-[1,1′-biphenyl]-4-yl)amino)-1H-1,2,3-triazole-5-carboxylic acid]
IC50 [1]: < 0.1 µM

O=C(O)c1[nH]nnc1Oc1ccc(-c2ccc(OC(F)(F)F)c(Cl)c2)cc1 [Compound 156, 4-((3′-chloro-4′-(trifluoromethoxy)-[1,1′-biphenyl]-4-yl)oxy)-1H-1,2,3-triazole-5-carboxylic acid]
IC50 [1]: < 0.1 µM

O=C(O)c1[nH]nnc1Oc1ccc(-c2cccc(C(=O)N3CCCCC3)c2)cc1 [Compound 157, 4-((3′-(piperidine-1-carbonyl)-[1,1′-biphenyl]-4-yl)oxy)-1H-1,2,3-triazole-5-carboxylic acid 2,2,2-trifluoroacetate]
IC50 [1]: < 0.1 µM

O=C(O)c1[nH]nnc1COc1ccc2cc(Cl)ccc2c1 [Compound 158, 4-(((6-chloronaphthalen-2-yl)oxy)methyl)-1H-1,2,3-triazole-5-carboxylic acid 2,2,2-trifluoroacetate]
IC50 [1]: < 0.1 µM

O=C(O)c1[nH]nnc1Oc1ccc(-c2cccc(CN3CCCCC3)c2)cc1 [Compound 160, 4-((3′-(piperidin-1-ylmethyl)-[1,1′-biphenyl]-4-yl)oxy)-1H-1,2,3-triazole-5-carboxylic acid 2,2,2-trifluoroacetate]
IC50 [1]: 0.1 to 1 µM

O=C(O)c1[nH]nnc1Oc1ccc(-c2ccc(C(F)(F)F)cc2)cc1 [Compound 161, 4-((4′-(trifluoromethyl)-[1,1′-biphenyl]-4-yl)oxy)-1H-1,2,3-triazole-5-carboxylic acid]
IC50 [1]: < 0.1 µM

O=C(O)c1[nH]nnc1Oc1ccc(-c2cccc(OC3CCCC3)c2)cc1 [Compound 162, 4-((3′-(cyclopentyloxy)-[1,1′-biphenyl]-4-yl)oxy)-1H-1,2,3-triazole-5-carboxylic acid]
IC50 [1]: < 0.1 µM

O=C(O)c1[nH]nnc1Oc1ccc(-c2ccc(Cl)c(OC(F)(F)F)c2)cc1 [Compound 163, 4-((4′-chloro-3′-(trifluoromethoxy)-[1,1′-biphenyl]-4-yl)oxy)-1H-1,2,3-triazole-5-carboxylic acid]
IC50 [1]: < 0.1 µM

O=C(O)c1[nH]nnc1Sc1ccc(-c2cccc(N3CCCCC3)c2)cc1 [Compound 164, 4-((3′-(piperidin-1-yl)-[1,1′-biphenyl]-4-yl)thio)-1H-1,2,3-triazole-5-carboxylic acid 2,2,2-trifluoroacetate]
IC50 [1]: < 0.1 µM

O=C(O)c1[nH]nnc1Oc1ccc(-c2ccc(Cl)c(Cl)c2)cc1 [Compound 165, 4-((3′,4′-dichloro-[1,1′-biphenyl]-4-yl)oxy)-1H-1,2,3-triazole-5-carboxylic acid 2,2,2-trifluoroacetate]
IC50: < 0.1 µM

O=C(O)c1[nH]nnc1C(F)(F)c1ccc(Cl)c(Cl)c1 [Compound 166, 4-((3,4-dichlorophenyl)difluoromethyl)-1H-1,2,3-triazole-5-carboxylic acid]
IC50 [1]: < 0.1 µM

O=C(O)c1[nH]nnc1OC1CCC(F)(F)CC1 [Compound 167, 4-((4,4-difluorocyclohexyl)oxy)-1H-1,2,3-triazole-5-carboxylic acid 2,2,2-trifluoroacetate]
IC50 [1]: < 0.1 µM

O=C(O)c1[nH]nnc1OC1CC2CCC1C2 (centres unmarked) [Compound 168, 4-(bicyclo[2.2.1]heptan-2-yloxy)-1H-1,2,3-triazole-5-carboxylic acid]
IC50 [1]: < 0.1 µM

O=C(O)c1[nH]nnc1Sc1ccc(-c2ccc(N3CCCCC3)cc2)cc1 [Compound 169, 4-((4′-(piperidin-1-yl)-[1,1′-biphenyl]-4-yl)thio)-1H-1,2,3 triazole-5-carboxylic acid 2,2,2-trifluoroacetate]
IC50 [2]: < 0.1 µM

O=C(O)c1[nH]nnc1Sc1ccc(-c2cccc(OCC3CC3)c2)cc1 [Compound 170, 4-((3′-(cyclopropylmethoxy)-[1,1′-biphenyl]-4-yl)thio)-1H-1,2,3-triazole-5-carboxylic acid 2,2,2-trifluoroacetate]
IC50 [2]: < 0.1 µM

O=C(O)c1[nH]nnc1CSc1ccc2cc(Cl)ccc2c1 [Compound 171, 4-(((6-chloronaphthalen-2-yl)thio)methyl)-1H-1,2,3-triazole-5-carboxylic acid 2,2,2-trifluoroacetate]
IC50 [2]: < 0.1 µM

O=C(O)c1[nH]nnc1SC1CCc2cc(F)c(F)cc2C1 (centres unmarked) [Compound 172, 4-((6,7-difluoro-1,2,3,4-tetrahydronaphthalen-2-yl)thio)-1H-1,2,3-triazole-5-carboxylic acid]
IC50 [2]: < 0.1 µM

O=C(O)c1[nH]nnc1SC1Cc2cc(F)c(F)cc2C1 [Compound 173, 4-((5,6-difluoro-2,3-dihydro-1H-inden-2-yl)thio)-1H-1,2,3-triazole-5-carboxylic acid]
IC50 [2]: < 0.1 µM

O=C(O)c1[nH]nnc1SCc1ccc2cc(Cl)ccc2c1 [Compound 174, 4-(((6-chloronaphthalen-2-yl)methyl)thio)-1H-1,2,3-triazole-5-carboxylic acid 2,2,2-trifluoroacetate]
IC50 [2]: < 0.1 µM
